Test: Hygroscopic behavior test by dynamic vapor sorption (DVS)
Assay type: physicochemical
Details: 25° C.; for Did the crystal form change before and after the test?: 0-90% RH; for Hygroscopicity / 80% RH sample weight change (%): 80% RH; for 80% RH sample weight change (%): adsorption 0-90% RH
Description: The experimental method for characterizing an acid salt or a base salt of compound I by dynamic vapor sorption (DVS) was as follows: A small amount of a powder of the acid salt or the base salt of compound I was taken and placed into a precise sample tray that matches the instrument. After the sample was loaded, the sample tray was sent into the instrument for analysis. In the present disclosure, the instrument model used in the dynamic vapor sorption analysis was Intrinsic PLUS; the experimental parameter was set as follows: a constant temperature of 25° C. was set; the mass percent change rate per unit time (dm/dt)=0.02%/min was used as a criterion for determining that a balance is achieved; the program humidity change cycle was set as follows: the initial relative humidity was 0%, and the endpoint relative humidity was 90%.
The hygroscopic behavior of a compound affects the production, storage, stability, and quality of the drug.

SMILES	Did the crystal form change before and after the test?	Hygroscopicity	80% RH sample weight change (%)
O=C(O)c1ccc2nc(CN3CCC(Oc4cccc(COc5ccc(Cl)cc5F)n4)CC3)n(C[C@@H]3CCO3)c2c1 [Free form of compound I-1, (S)-2-((4-((6-((4-chloro-2-fluorophenoxy)methyl)pyridin-2-yl)oxy)piperidin-1-yl)methyl)-1-(oxetan-2-ylmethyl)-1H-benzo[d]imidazole-6-carboxylic acid]	no solid form change was observed and No	slightly hygroscopic	0.90
N#Cc1ccc(OCc2cccc(OC3CCN(Cc4nc5ccc(C(=O)O)cc5n4C[C@@H]4CCO4)CC3)n2)c(F)c1 [Free form of compound I-2, (S)-2-((4-((6-((4-cyano-2-fluorophenoxy)methyl)pyridin-2-yl)oxy)piperidin-1-yl)methyl)-1-(oxetan-2-ylmethyl)-1H-benzo[d]imidazole-6-carboxylic acid]	no solid form change was observed and No	slightly hygroscopic	0.71

— patent publication US20260125368A1, “SALT OF GLP-1R AGONIST, PREPARATION METHOD THEREFOR AND USE THEREOF” (MINDRANK AI LTD., priority 2022, published 2026)
